Test results published in patent US9597407B2, “Targeted antimicrobial moieties” (C3 Jian, Inc., priority 2009, dated 2017).
Entries after “also recorded” stand apart in the source; their conditions may differ. Square brackets hold non-standard residues; d marks the D form. Ends that are not written are not given here. dOrn = NCCC[C@@H](N)C(=O)O

These substances were tested on bacteria (assay: Binding of targeting peptides to microorganisms (Table 3)). Conditions: microorganism bound by the targeting peptide; binding in aqueous buffers chosen by peptide solubility, preferably 1x PBS.
For “PF-337 (YMTKKLVEMAERQMAGK; Peptide with targeting and/or antimicrobial activity)”, the “Target(s)” value was “S. epidermidis”.
For “PF-329 (IGILFDKSVRKY; Peptide with targeting and/or antimicrobial activity)”, the “Target(s)” value was “S. epidermidis”.
With “PF-169 (APGSAADSPRSRADD; Peptide with targeting and/or antimicrobial activity)” the “Target(s)” value was “S. epidermidis; also recorded: E. coli; also recorded: C. albicans; also recorded: E. faecalis; also recorded: C. jeikeium”.
For “PF-131 (RRAAARTKGNRR; Peptide with targeting and/or antimicrobial activity)”, the “Target(s)” value was “S. epidermidis and E. coli and MRSA and C. jeikeium”.
With “PF-239 (PKHNVVTGVSVDLDYKP; Peptide with targeting and/or antimicrobial activity)” the “Target(s)” value was “S. mutans; also recorded: E. coli”.
In the case of “PF-104 (ERTAVNDLWI; Peptide with targeting and/or antimicrobial activity)”, the “Target(s)” value is reported as “MRSA and C. jeikeium”.
With “PF-314 (ECLKKAIKSKALNKAFKIDVPDEVYDNLLMELEEYEK; Peptide with targeting and/or antimicrobial activity)” the “Target(s)” value was “S. mutans”.
“PF-317 (LILVSDI; Peptide with targeting and/or antimicrobial activity)” was tested, and the “Target(s)” value was “S. mutans”.
For “PF-279 (SHIGFISISACLAVLLGIARLFVWTWVKFFA; Peptide with targeting and/or antimicrobial activity)”, the “Target(s)” value was “S. mutans; also recorded: S. epidermidis; also recorded: M. luteus; also recorded: E. coli; also recorded: P. aeruginosa; also recorded: A. baumannii”.
“PF-247 (ETAASETH; Peptide with targeting and/or antimicrobial activity)” was tested, and the “Target(s)” value was “S. epidermidis”.
With “PF-163 (TSWLRAAERQEIGEPTKTFGEKTTSL; Peptide with targeting and/or antimicrobial activity)” the “Target(s)” value was “S. epidermidis”.
With “PF-223 (VKFCIECQTKLERKRR; Peptide with targeting and/or antimicrobial activity)” the “Target(s)” value was “S. epidermidis; also recorded: M. luteus; also recorded: A. baumannii”.
With “PF-181 (GIAPRRNEWGAVGGR; Peptide with targeting and/or antimicrobial activity)” the “Target(s)” value was “S. epidermidis and M. luteus and E. coli and MRSA and E. faecalis and C. jeikeium”.
In the case of “PF-213 (MTTGVDFIIEKV; Peptide with targeting and/or antimicrobial activity)”, the “Target(s)” value is reported as “S. epidermidis”.
In the case of “PF-365 (LYKQKIQLEEELEKLKDDRQ; Peptide with targeting and/or antimicrobial activity)”, the “Target(s)” value is reported as “S. epidermidis; also recorded: B. subtilis; also recorded: B. fragilis; also recorded: P. aeruginosa; also recorded: C. albicans”.
For “PF-201 (GCRPASLSDADPDGR; Peptide with targeting and/or antimicrobial activity)”, the “Target(s)” value was “S. epidermidis; also recorded: M. luteus; also recorded: E. coli; also recorded: C. albicans; also recorded: E. faecalis; also recorded: C. jeikeium; also recorded: C. jejuni”.
“PF-323 (ARESIEKSHVPVDATIVGVVDSFEVFDE; Peptide with targeting and/or antimicrobial activity)” was tested, and the “Target(s)” value was “S. mutans”.
“PF-138 (AVHHSLLFR; Peptide with targeting and/or antimicrobial activity)” was tested, and the “Target(s)” value was “S. epidermidis and M. luteus and P. mirabilis and E. coli and C. albicans and MRSA and C. jeikeium and C. jejuni”.
For “PF-245 (MNDVKPVVQPKQTLKAFLVQLLSVRAGVYIKQNNQLPKTKG; Peptide with targeting and/or antimicrobial activity)”, the “Target(s)” value was “S. epidermidis; also recorded: M. luteus; also recorded: P. aeruginosa; also recorded: A. baumannii”.

Same assay, conditions: microorganism the targeting peptide binds; binding in aqueous buffers that varied with peptide solubility, preferably 1x PBS
In the case of “CHA0 (D[dOrn]KTAA[dOrn]K; bridge (positions not given here); not fully specified (bridges))”, the “Target(s)” value is reported as “P. fluorescens”.
With “1T-188 (HRKDVYKK; Peptide with targeting and/or antimicrobial activity) [Peptide 1T-188]” the “Target(s)” value was “S. sanguinis”.
For “1T-201 (KRKHENVIVAEEMRVIKN; Peptide with targeting and/or antimicrobial activity) [Peptide 1T-201]”, the “Target(s)” value was “S. sanguinis”.
For “TT-308 (GLVIIPNLIALIILFSQVRQQTKDYFSNPKLSSR; Peptide with targeting and/or antimicrobial activity)”, the “Target(s)” value was “F. nucleatum”.
In the case of “TT-310 (TKLKKNNKLLSAKKENTLHTKDK; Peptide with targeting and/or antimicrobial activity)”, the “Target(s)” value is reported as “F. nucleatum”.

Same assay, conditions: peptide binding in aqueous buffers that varied depending on peptide solubility; preferably 1x PBS
“PF-505 (GYTKDPGTGI; Peptide with targeting and/or antimicrobial activity)” was tested, and the “Target(s) (microorganisms bound by the targeting peptide)” value was “S. mutans”.
For “PF-720 (SLDMGK; Peptide with targeting and/or antimicrobial activity)”, the “Target(s) (microorganism bound by the targeting peptide)” value was “S. mutans”.
“PF-679 (CRARFIRR; Peptide with targeting and/or antimicrobial activity)” was tested, and the “Target(s) (microorganism bound by the targeting peptide)” value was “S. mutans; also recorded: E. coli”.
“PF-483 (EDNKDKKDKKDK; Peptide with targeting and/or antimicrobial activity)” was tested, and the “Target(s) (microorganisms bound by the targeting peptide)” value was “P. mirabilis; also recorded: C. jeikeium; also recorded: C. jejuni”.
For “PF-C285 (FTIIELKKQKIKHGENNKKTAHPLNEPFCARA; Peptide with targeting and/or antimicrobial activity)”, the “Target(s) (microorganism bound by the targeting peptide)” value was “A. naeslundii; also recorded: F. nucleatum; also recorded: P. gingivalis; also recorded: S. mutans; also recorded: T. denticola”.
“PF-797 (WYYFDNNGYM; Peptide with targeting and/or antimicrobial activity)” was tested, and the “Target(s) (microorganism bound by the targeting peptide)” value was “S. mutans”.
In the case of “PF-751 (AESSPAQETT; Peptide with targeting and/or antimicrobial activity)”, the “Target(s) (microorganism bound by the targeting peptide)” value is reported as “S. epidermidis; also recorded: E. coli; also recorded: C. albicans; also recorded: C. jeikeium”.
“PF-502 (NKGKQMQDQTGKQPIVDNG; Peptide with targeting and/or antimicrobial activity)” was tested, and the “Target(s) (microorganisms bound by the targeting peptide)” value was “S. mutans”.
With “PF-492 (IQIDAASFYSISKSTIK; Peptide with targeting and/or antimicrobial activity)” the “Target(s) (microorganisms bound by the targeting peptide)” value was “S. mutans; also recorded: B. subtilis; also recorded: E. coli”.
For “PF-S007 (VVAGVVLLTALAVGSKRKEKKQIKEIQRLLAATR; Peptide with targeting and/or antimicrobial activity)”, the “Target(s) (microorganism bound by the targeting peptide)” value was “S. epidermidis and MRSA”.
With “PF-508 (VSTFGKVVKVVDEK; Peptide with targeting and/or antimicrobial activity)” the “Target(s) (microorganisms bound by the targeting peptide)” value was “S. mutans”.
“PF-707 (IDPESIVTTNNKQDNVDEQ; Peptide with targeting and/or antimicrobial activity)” was tested, and the “Target(s) (microorganism bound by the targeting peptide)” value was “S. mutans; also recorded: E. coli”.
For “PF-795 (ALHKSGIQVIADWVPDQIYN; Peptide with targeting and/or antimicrobial activity)”, the “Target(s) (microorganism bound by the targeting peptide)” value was “S. mutans”.
With “PF-705 (GEEEGTVAD; Peptide with targeting and/or antimicrobial activity)” the “Target(s) (microorganism bound by the targeting peptide)” value was “S. mutans; also recorded: E. coli”.
For “PF-780 (AVYDALVALAAAEHRAELATRDARAKDTYEKIGVHVVVAA; Peptide with targeting and/or antimicrobial activity)”, the “Target(s) (microorganism bound by the targeting peptide)” value was “Mycobacteria spp”.

Same assay, conditions: peptide binding in aqueous buffers varied by peptide solubility; preferably 1x PBS
“1T-154 (YFSFLEIVGMARR; Peptide with targeting and/or antimicrobial activity) [Peptide 1T-154]” was tested, and the “Target(s) (microorganism bound by the targeting peptide)” value was “P. gingivalis”.
With “1T-75 (GVARGLQLGIKTRTQWGAATGAA; Peptide with targeting and/or antimicrobial activity) [Peptide 1T-75]” the “Target(s) (microorganism bound by the targeting peptide)” value was “S. pneumoniae”.
For “1T-126 (QGLARPVLRRIPL; Peptide with targeting and/or antimicrobial activity) [Peptide 1T-126]”, the “Target(s) (microorganism bound by the targeting peptide)” value was “S. gordonii; also recorded: S. mitis; also recorded: S. mutans”.
“1T-90 (RNVIGQVL; Peptide with targeting and/or antimicrobial activity) [Peptide 1T-90]” was tested, and the “Target(s) (microorganism bound by the targeting peptide)” value was “S. gordonii; also recorded: S. mitis; also recorded: S. mutans; also recorded: S. oralis; also recorded: S. sanguinis”.
“1T-12 (FGNIFKGLKDVIETIVKWTAAK; Peptide with targeting and/or antimicrobial activity) [Peptide 1T-12]” was tested, and the “Target(s) (microorganism bound by the targeting peptide)” value was “C. xerosis; also recorded: C. striatum; also recorded: S. epidermidis; also recorded: S. mutans”.
With “1T-38 (VMFVLTRGRSPRPMIPAY; Peptide with targeting and/or antimicrobial activity) [Peptide 1T-38]” the “Target(s) (microorganism bound by the targeting peptide)” value was “S. mutans; also recorded: S. aereus; also recorded: S. epidermidis; also recorded: C. jeikeium; also recorded: C. xerosis; also recorded: C. striatum; also recorded: P. aeruginosa”.
In the case of “1T-68 (GGTKEIVYQRG; Peptide with targeting and/or antimicrobial activity) [Peptide 1T-68]”, the “Target(s) (microorganism bound by the targeting peptide)” value is reported as “S. mutans; also recorded: S. aureus; also recorded: C. jeikeium; also recorded: C. xerosis; also recorded: C. striatum; also recorded: P. aeruginosa”.
In the case of “1T-24 (EEAEEKLAEVSQAVKRLVR; Peptide with targeting and/or antimicrobial activity) [Peptide 1T-24]”, the “Target(s) (microorganism bound by the targeting peptide)” value is reported as “P. aeruginosa”.
In the case of “1T-8 (FSVAACGEQRAVTFVLLIEDLI; Peptide with targeting and/or antimicrobial activity) [Peptide 1T-8]”, the “Target(s) (microorganism bound by the targeting peptide)” value is reported as “M. xanthus”.
In the case of “1T-11 (RISE; Peptide with targeting and/or antimicrobial activity) [Peptide 1T-11]”, the “Target(s) (microorganism bound by the targeting peptide)” value is reported as “S. mutans; also recorded: S. epidermidis; also recorded: P. aeruginosa”.
